The source made the active and inactive calls. The rule behind the calls is not given here.
Experiments:
[1] = system: Canis familiaris; assay: Antianxiety activity in po dosed dog assessed as ataxia administered as single dose measured up to 24 hrs; format: functional; conditions: Canis lupus familiaris, read-out: MED
[2] = system: Mus musculus; assay: Antianxiety activity in albino BALB/cJ mouse assessed as reduction in footshock-induced fighting behavior at 5 mg/kg, po after 30 to 90 mins; format: functional; set-up: scale not given: the % may be the effect or the level left
[3] = system: Felis catus; assay: Hypnotic activity in cat assessed as increase in non-REM sleep time at 0.5 mg/kg administered orally through diet measured for 12 hrs by EEG analysis; format: functional; conditions: route oral
[4] = system: Rhesus monkey; assay: Antianxiety activity in po dosed rhesus monkey assessed as antiagressive behavior measured every hour post dosing; format: functional; conditions: Macaca mulatta, read-out: MED
[5] = system: Rattus norvegicus; assay: Antianxiety activity in Long-Evans rat assessed as reduction in motor activity at 1 mg/kg, po after 2 hrs relative to vehicle-treated control; format: functional; set-up: scale not given: the % may be the effect or the level left
[6] = system: Felis catus; assay: Hypnotic activity in cat assessed as increase in total sleep time at 0.5 mg/kg administered orally through diet measured for 12 hrs by EEG analysis; format: functional; conditions: route oral
[7] = system: Rattus norvegicus; assay: Antianxiety activity in Long-Evans rat assessed as reduction in motor activity at 4 mg/kg, po after 2 hrs relative to vehicle-treated control; format: functional; set-up: scale not given: the % may be the effect or the level left
[8] = system: Rattus norvegicus; assay: Analgesic activity in po dosed Sprague-Dawley rat after 15 to 90 mins by tail flick test; format: functional
[9] = system: Mus musculus; assay: Analgesic activity in po dosed mouse assessed as inhibition of acetic acid-induced writhing administered 30 mins prior to acetic acid challenge measured after 5 mins for 20 mins; format: functional
[10] = Acute toxicity in po dosed mouse; format: organism-based; conditions: in vivo
[11] = system: Rattus norvegicus; assay: Antipsychotic activity in rat assessed as reduction of methamphetamine-induced hyperactivity at 10 mg/kg, po administered prior to methamphetamine challenge relative to vehicle-treated control; format: functional; set-up: scale not given: the % may be the effect or the level left
[12] = system: Rattus norvegicus; assay: Antipsychotic activity in rat assessed as reduction of methamphetamine-induced hyperactivity at 2.5 mg/kg, po administered prior to methamphetamine challenge relative to vehicle-treated control; format: functional; set-up: scale not given: the % may be the effect or the level left
[13] = system: Rattus norvegicus; assay: Antihypertensive activity in spontaneously hypertensive rat model assessed as reduction in blood pressure at 10 mg/kg, po after 3 hrs; format: functional; set-up: scale not given: the % may be the effect or the level left
[14] = system: Rattus norvegicus; assay: Antianxiety activity in Long-Evans rat assessed as reduction in motor activity at 5 mg/kg, po after 2 hrs relative to vehicle-treated control; format: functional; set-up: scale not given: the % may be the effect or the level left
[15] = system: Rattus norvegicus; assay: Antipsychotic activity in rat assessed as reduction of methamphetamine-induced hyperactivity at 5 mg/kg, po administered prior to methamphetamine challenge relative to vehicle-treated control; format: functional; set-up: scale not given: the % may be the effect or the level left
[16] = system: Mus musculus; assay: Analgesic activity in mouse assessed as inhibition of acetic acid-induced writhing at 40 mg/kg, po administered 30 mins prior to acetic acid challenge measured after 5 mins for 20 mins; format: functional
[17] = system: Rhesus monkey; assay: Antianxiety activity in rhesus monkey assessed as antiagressive behavior at 10 mg/kg, po measured every hour post dosing; format: functional, organism-based; set-up: dose 10 mg/kg; conditions: Macaca mulatta
[18] = system: Mus musculus; assay: Antianxiety activity in albino BALB/cJ mouse assessed as reduction in footshock-induced fighting behavior at 10 mg/kg, po after 30 to 90 mins; format: functional; set-up: scale not given: the % may be the effect or the level left
[19] = system: Rattus norvegicus; assay: Antihypertensive activity in spontaneously hypertensive rat model assessed as reduction in blood pressure at 30 mg/kg, po after 3 hrs; format: functional; set-up: scale not given: the % may be the effect or the level left
[20] = system: Rattus norvegicus; assay: Antihypertensive activity in spontaneously hypertensive rat model assessed as reduction in blood pressure at 10 mg/kg, po after 24 hrs; format: functional; set-up: scale not given: the % may be the effect or the level left
[21] = system: Rattus norvegicus; assay: Antihypertensive activity in spontaneously hypertensive rat model assessed as reduction in blood pressure at 30 mg/kg, po after 24 hrs; format: functional; set-up: scale not given: the % may be the effect or the level left
[22] = organism: Rattus norvegicus; assay: animal or person; format: functional; conditions: Charles River, route oral
Description: Antidiarrheal activity in Charles River rat assessed as inhibition of castor oil-induced diarrhea by measuring protected animals at 0.5 mg/kg, po administered 1 hr prior to castor oil challenge measured after 1 hr relative to vehicle-treated control

[23] = system: Rattus norvegicus; assay: Antisecretory activity in Sprague-Dawley rat assessed as decrease in volume at 50 mg/kg, po administered 30 mins prior to pylorus ligation measured after 4 hrs relative to control; format: functional; set-up: scale not given: the % may be the effect or the level left
[24] = system: Rattus norvegicus; assay: Increase in pepsin concentration in Sprague-Dawley rat at 50 mg/kg, po administered 30 mins prior to pylorus ligation measured after 4 hrs relative to control; format: functional
[25] = system: Rattus norvegicus; assay: Antisecretory activity in Sprague-Dawley rat assessed as decrease in pepsin output at 50 mg/kg, po administered 30 mins prior to pylorus ligation measured after 4 hrs relative to control; format: functional; set-up: scale not given: the % may be the effect or the level left
[26] = system: Rattus norvegicus; assay: Antisecretory activity in Sprague-Dawley rat assessed as decrease in acid output at 50 mg/kg, po administered 30 mins prior to pylorus ligation measured after 4 hrs relative to control; format: functional; set-up: scale not given: the % may be the effect or the level left
[27] = system: Rattus norvegicus; assay: Antisecretory activity in Sprague-Dawley rat assessed as decrease in acidity at 50 mg/kg, po administered 30 mins prior to pylorus ligation measured after 4 hrs relative to control; format: functional; set-up: scale not given: the % may be the effect or the level left
[28] = system: Mus musculus; assay: Antidepressant activity in po dosed mouse assessed as potentiation of DOPA-induced effect administered 4 hrs prior to DOPA challenge; format: functional; conditions: read-out: MED
[29] = system: Rattus norvegicus; assay: Antianxiety activity in Long-Evans rat assessed as reduction in motor activity at 10 mg/kg, po after 2 hrs relative to vehicle-treated control; format: functional; set-up: scale not given: the % may be the effect or the level left

| SMILES | minimal effective dose [1] [mg/kg] | Activity [2] [%] | Time [3] [min] | minimal effective dose [4] [mg/kg] | Time [6] [min] | ED50 [9] [mg/kg] | LD50 [10] [mg/kg] | Activity [13] [%] | Activity [14] [%] | Activity [15] [%] | inhibition in vivo at 40 mg/kg [16] [%] | Activity [18] [%] | Activity [20] [%] | inhibition in vivo at 0.5 mg/kg [22] [%] | other results |
| --- | --- | --- | --- | --- | --- | --- | --- | --- | --- | --- | --- | --- | --- | --- | --- |
| CC1CCC2=C(C1)c1c(OC(=O)CCCN3CCOCC3)cc(C(C)CCCc3ccc(F)cc3)cc1OC2(C)C.Cl (configuration not stated) | 10 | 8 | 39 | 10 | 16 | 6 | ≥ 1000 | – | – | – | – | – | – | – | Activity [5]: 68%; Activity [7]: 93%; ED50 [8]: 1.7 mg/kg; Activity [11]: 95%; Activity [12]: 86% |
| CC1CCC2=C(C1)c1c(O)cc(C(C)CCCN(C)C)cc1OC2(C)C (configuration not stated) | – | – | – | – | – | – | ≥ 1000 | 9 | 12 | 20 | 18 | 38 | 13 | – | Activity [17]: inactive; Activity [19]: 10%; Activity [21]: 6% |
| CC(CCCc1ccc(F)cc1)c1cc(O)c2c(c1)OC(C)(C)C1=C2CCC1 (configuration not stated) | 10 | – | – | 10 | – | – | ≥ 1000 | 3 | 41 | 58 | 22 | 47 | 30 | 20 | – |
| C#CCN1CCC2=C(C1)c1c(OC(=O)CCCN3CCCCC3)cc(C(C)CCCc3ccc(F)cc3)cc1OC2(C)C.Cl (configuration not stated) | 0.4 | – | 121 | 1 | 47 | 10.3 | 750 | – | 87 | 62 | – | 23 | – | 40 | Activity [23]: 24.9%; Activity [24]: 32%; Activity [25]: 1.9%; Activity [26]: 56.1%; Activity [27]: 42.4% |
| Br.CC(CCCc1ccc(F)cc1)c1cc(O)c2c(c1)OC(C)(C)C1=C2C2CCN1CC2 (configuration not stated) | 1 | 23 | – | 1 | – | – | ≥ 1000 | – | 23 | 4 | 32 | – | – | 10 | minimal effective dose [28]: 20 mg/kg; Activity [29]: 46% |

From ChEMBL document CHEMBL3272295, “Drugs derived from cannabinoids. 5. delta6a,10a-Tetrahydrocannabinol and heterocyclic analogs containing aromatic side chains” (J Med Chem, 1976)
